Test results as given in patent US11053204B2, “Pyrimidinyloxy benzene derivatives as herbicides” (FMC Corporation, priority 2015, dated 2021).

Columns and labels:
Format in all cases: in vivo
[1] = test system: Italian ryegrass (Lolium multiflorum); assay: Test A preemergence, visual injury rating; conditions: Lolium multiflorum, pre-emergence, 240 h, 0 to 100 scale (0 no effect, 100 complete control), read-out: Ryegrass, Italian plant response rating
In short: (§1)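 Pre- and postemergence greenhouse screen. Soil: loam + sand. Spray carrier: solvent mixture, non-phytotoxic, with surfactant. Post timing at 1–2 leaves, height 2–10 cm. Readout: visual injury on a 0–100 scale roughly 10 days after application, untreated plants as reference.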

[2] = test system: barnyardgrass (Echinochloa crus-galli); assay: Test A preemergence, visual injury rating; conditions: Echinochloa crus-galli, pre-emergence, 240 h, 0 to 100 scale (0 no effect, 100 complete control), read-out: Barnyardgrass plant response rating
In short: as §1

[3] = test system: giant foxtail (Setaria faberii); assay: Test A preemergence, visual injury rating; conditions: Setaria faberi, pre-emergence, 240 h, 0 to 100 scale (0 no effect, 100 complete control), read-out: Foxtail, Giant plant response rating
In short: as §1

[4] = test system: ragweed (common ragweed, Ambrosia elatior); assay: Test A preemergence, visual injury rating; conditions: Ambrosia artemisiifolia, pre-emergence, 240 h, 0 to 100 scale (0 no effect, 100 complete control), read-out: Ragweed plant response rating
In short: as §1

[5] = test system: blackgrass (Alopecurus myosuroides); assay: Test C preemergence, plant response rating; conditions: Alopecurus myosuroides, pre-emergence, Preemergence
In short: (§2)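 Both timings shared one formulation, a non-phytotoxic solvent mixture with surfactant, and a greenhouse period of 13 to 15 d. Preemergence used seeded loam/sand or silt loam soil, postemergence used 2 to 18 cm plants; visual ratings ran from 0 (no effect) to 100 (complete control).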

[6] = test system: corn (Zea mays); assay: Test C preemergence, plant response rating; conditions: Zea mays, pre-emergence, Preemergence
In short: as §2

[7] = test system: crabgrass, large (large crabgrass, Digitaria sanguinalis); assay: Test C preemergence, plant response rating; conditions: Digitaria sanguinalis, pre-emergence, Preemergence
In short: as §2

[8] = test system: foxtail, giant (giant foxtail, Setaria faberii); assay: Test C preemergence, plant response rating; conditions: Setaria faberi, pre-emergence, Preemergence
In short: as §2

[9] = test system: lambsquarters (Chenopodium album); assay: Test C preemergence, plant response rating; conditions: Chenopodium album, pre-emergence, Preemergence
In short: as §2

[10] = test system: morningglory (Ipomoea coccinea); assay: Test C preemergence, plant response rating; conditions: Ipomoea, pre-emergence, Preemergence
In short: as §2

[11] = test system: nutsedge, yellow (yellow nutsedge, Cyperus esculentus); assay: Test C preemergence, plant response rating; conditions: Cyperus, pre-emergence, Preemergence
In short: as §2

[12] = test system: oilseed rape (Brassica napus); assay: Test C preemergence, plant response rating; conditions: Brassica napus, pre-emergence, Preemergence
In short: as §2

[13] = test system: ragweed (common ragweed, Ambrosia elatior); assay: Test C preemergence, plant response rating; conditions: Ambrosia artemisiifolia, pre-emergence, Preemergence
In short: as §2

[14] = test system: ryegrass, Italian (Italian ryegrass, Lolium multiflorum); assay: Test C preemergence, plant response rating; conditions: Lolium multiflorum, pre-emergence, Preemergence
In short: as §2

[15] = test system: soybean (Glycine max); assay: Test C preemergence, plant response rating; conditions: Glycine max, pre-emergence, Preemergence
In short: as §2

[16] = test system: velvetleaf (Abutilon theophrasti); assay: Test C preemergence, plant response rating; conditions: Abutilon theophrasti, pre-emergence, Preemergence
In short: as §2

[17] = test system: waterhemp (common waterhemp, Amaranthus rudis); assay: Test C preemergence, plant response rating; conditions: Amaranthus tuberculatus, pre-emergence, Preemergence
In short: as §2

[18] = test system: wheat (winter wheat, Triticum aestivum); assay: Test C preemergence, plant response rating; conditions: Triticum aestivum, pre-emergence, Preemergence
In short: as §2

## N#Cc1cccc(Oc2ncc(Cl)cn2)c1CCCCC(F)(F)F [Compound 73, 3-[(5-chloro-2-pyrimidinyl)oxy]-2-(5,5,5-trifluoropentyl)benzonitrile]
[1]; 125 g ai/ha
  pest or weed control at 125 g/ha: 50%
[1]; 500 g ai/ha
  pest or weed control at 500 g/ha: 90%
[2]; 125 g ai/ha
  pest or weed control at 125 g/ha: 100%
[2]; 500 g ai/ha
  pest or weed control at 500 g/ha: 100%
[3]; 125 g ai/ha
  pest or weed control at 125 g/ha: 100%
[3]; 500 g ai/ha
  pest or weed control at 500 g/ha: 100%
[4]; 125 g ai/ha
  pest or weed control at 125 g/ha: 10%
[4]; 500 g ai/ha
  pest or weed control at 500 g/ha: 50%
[5]; 62 g ai/ha, scale of 0 to 100
  pest or weed control at 62 g/ha: 100%
[5]; 125 g ai/ha, scale of 0 to 100
  pest or weed control at 125 g/ha: 100%
[5]; 16 g ai/ha, scale 0 to 100
  pest or weed control at 16 g/ha: 5%
[5]; 31 g ai/ha, scale 0 to 100
  pest or weed control at 31 g/ha: 98%
[6]; 62 g ai/ha, scale of 0 to 100
  Corn plant response rating (crop injury, 0 = no effect, 100 = complete kill) at 62 g/ha: 40%
[6]; 125 g ai/ha, scale of 0 to 100
  Corn plant response rating (crop injury, 0 = no effect, 100 = complete kill) at 125 g/ha: 50%
[6]; 16 g ai/ha, scale 0 to 100
  Corn plant response rating (crop injury, 0 = no effect, 100 = complete kill) at 16 g/ha: 0%
[6]; 31 g ai/ha, scale 0 to 100
  Corn plant response rating (crop injury, 0 = no effect, 100 = complete kill) at 31 g/ha: 20%
[7]; 62 g ai/ha, scale of 0 to 100
  pest or weed control at 62 g/ha: 100%
[7]; 125 g ai/ha, scale of 0 to 100
  pest or weed control at 125 g/ha: 100%
[7]; 16 g ai/ha, scale 0 to 100
  pest or weed control at 16 g/ha: 98%
[7]; 31 g ai/ha, scale 0 to 100
  pest or weed control at 31 g/ha: 100%
[8]; 62 g ai/ha, scale of 0 to 100
  pest or weed control at 62 g/ha: 100%
[8]; 125 g ai/ha, scale of 0 to 100
  pest or weed control at 125 g/ha: 100%
[8]; 16 g ai/ha, scale 0 to 100
  pest or weed control at 16 g/ha: 98%
[8]; 31 g ai/ha, scale 0 to 100
  pest or weed control at 31 g/ha: 100%
[9]; 125 g ai/ha, scale of 0 to 100
  pest or weed control at 125 g/ha: 100%
[9]; 16 g ai/ha, scale 0 to 100
  pest or weed control at 16 g/ha: 85%
[9]; 31 g ai/ha, scale 0 to 100
  pest or weed control at 31 g/ha: 90%
[9]; 62 g ai/ha, scale 0 to 100
  pest or weed control at 62 g/ha: 90%
[10]; 125 g ai/ha, scale of 0 to 100
  pest or weed control at 125 g/ha: 75%
[10]; 16 g ai/ha, scale 0 to 100
  pest or weed control at 16 g/ha: 0%
[10]; 31 g ai/ha, scale 0 to 100
  pest or weed control at 31 g/ha: 10%
[10]; 62 g ai/ha, scale 0 to 100
  pest or weed control at 62 g/ha: 60%
[11]; 125 g ai/ha, scale of 0 to 100
  pest or weed control at 125 g/ha: 10%
[11]; 16 g ai/ha, scale 0 to 100
  pest or weed control at 16 g/ha: 0%
[11]; 31 g ai/ha, scale 0 to 100
  pest or weed control at 31 g/ha: 0%
[11]; 62 g ai/ha, scale 0 to 100
  pest or weed control at 62 g/ha: 0%
[12]; 125 g ai/ha, scale of 0 to 100
  plant injury at 125 g/ha: 65%
[12]; 16 g ai/ha, scale 0 to 100
  plant injury at 16 g/ha: 0%
[12]; 31 g ai/ha, scale 0 to 100
  plant injury at 31 g/ha: 20%
[12]; 62 g ai/ha, scale 0 to 100
  plant injury at 62 g/ha: 50%
[13]; 125 g ai/ha, scale of 0 to 100
  pest or weed control at 125 g/ha: 25%
[13]; 16 g ai/ha, scale 0 to 100
  pest or weed control at 16 g/ha: 0%
[13]; 31 g ai/ha, scale 0 to 100
  pest or weed control at 31 g/ha: 0%
[13]; 62 g ai/ha, scale 0 to 100
  pest or weed control at 62 g/ha: 10%
[14]; 125 g ai/ha, scale of 0 to 100
  pest or weed control at 125 g/ha: 100%
[14]; 16 g ai/ha, scale 0 to 100
  pest or weed control at 16 g/ha: 30%
[14]; 31 g ai/ha, scale 0 to 100
  pest or weed control at 31 g/ha: 35%
[14]; 62 g ai/ha, scale 0 to 100
  pest or weed control at 62 g/ha: 85%
[15]; 125 g ai/ha, scale of 0 to 100
  plant injury at 125 g/ha: 40%
[15]; 16 g ai/ha, scale 0 to 100
  plant injury at 16 g/ha: 0%
[15]; 31 g ai/ha, scale 0 to 100
  plant injury at 31 g/ha: 0%
[15]; 62 g ai/ha, scale 0 to 100
  plant injury at 62 g/ha: 25%
[16]; 125 g ai/ha, scale of 0 to 100
  pest or weed control at 125 g/ha: 95%
[16]; 16 g ai/ha, scale 0 to 100
  pest or weed control at 16 g/ha: 0%
[16]; 31 g ai/ha, scale 0 to 100
  pest or weed control at 31 g/ha: 30%
[16]; 62 g ai/ha, scale 0 to 100
  pest or weed control at 62 g/ha: 75%
[17]; 125 g ai/ha, scale of 0 to 100
  pest or weed control at 125 g/ha: 100%
[17]; 16 g ai/ha, scale 0 to 100
  pest or weed control at 16 g/ha: 65%
[17]; 31 g ai/ha, scale 0 to 100
  pest or weed control at 31 g/ha: 100%
[17]; 62 g ai/ha, scale 0 to 100
  pest or weed control at 62 g/ha: 100%
[18]; 125 g ai/ha, scale of 0 to 100
  plant injury at 125 g/ha: 70%
[18]; 16 g ai/ha, scale 0 to 100
  plant injury at 16 g/ha: 0%
[18]; 31 g ai/ha, scale 0 to 100
  plant injury at 31 g/ha: 0%
[18]; 62 g ai/ha, scale 0 to 100
  plant injury at 62 g/ha: 30%
